What was measured:
[1] = system: A549-ACE2; assay: phospholipidosis EC50; higher = less potent phospholipidosis inducer
[2] = system: A549-ACE2 infected with SARS-CoV-2; assay: cell count relative to DMSO; higher = less toxic; details: 24 h
[3] = system: U2OS; assay: cell viability relative to DMSO; higher = less toxic; details: 72 h
[4] = system: Caco-2; assay: as above; details: 72 h
[5] = system: Vero E6; assay: as above; details: 72 h
[6] = system: HepG2; assay: as above; details: 72 h
[7] = system: Calu-3; assay: as above; details: 72 h
[8] = system: A549-ACE2; assay: drug-induced phospholipidosis relative to tamoxifen; higher = more phospholipidosis
[9] = system: U2OS; assay: drug sensitivity score (DSS) for viability; higher = more toxic; extreme values may be limits of the assay; details: 72 h
[10] = system: Caco-2; assay: as above; details: 72 h
[11] = system: Vero E6; assay: as above; details: 72 h
[12] = system: HepG2; assay: as above; details: 72 h
[13] = system: Calu-3; assay: as above; details: 72 h
[14] = system: A549-ACE2 infected with SARS-CoV-2; assay: SARS-CoV-2 infection rate relative to DMSO; higher = more infection; details: 24 h
[15] = system: U2OS; assay: relative viability EC50 (midpoint between 100% and the lowest measured viability); higher = less toxic; details: 72 h
[16] = system: Caco-2; assay: as above; details: 72 h
[17] = system: Vero E6; assay: as above; details: 72 h
[18] = system: HepG2; assay: as above; details: 72 h
[19] = system: Calu-3; assay: as above; details: 72 h
[20] = system: A549-ACE2 infected with SARS-CoV-2; assay: morphology score (similarity to uninfected cells); higher = more like uninfected cells; details: 24 h

COc1cc2c(NC3CCN(C(C)C)CC3)nc(C3CCCCC3)nc2cc1OCCCN1CCCC1 [UNC0638]
Details	SARS-CoV-2 infection rate [%]	cell count [%]	cell viability [%]	morphology score	phospholipidosis EC50 [µM]
[1], 24 h	–	–	–	–	0.85
[1], 48 h	–	–	–	–	0.916
[1], 72 h	–	–	–	–	2.15
[2], 0.3 µM	–	104	–	–	–
[2], 3 µM	–	120	–	–	–
[2], 10 µM	–	120	–	–	–
[2], 30 µM	–	85	–	–	–
[3], 1 nM	–	–	103	–	–
[3], 10 nM	–	–	104	–	–
[3], 100 nM	–	–	99.7	–	–
[3], 1000 nM	–	–	98.5	–	–
[3], 10000 nM	–	–	79.5	–	–
[4], 1 nM	–	–	99.2	–	–
[4], 10 nM	–	–	95.3	–	–
[4], 100 nM	–	–	98.5	–	–
[4], 1000 nM	–	–	96.7	–	–
[4], 10000 nM	–	–	90.3	–	–
[5], 1 nM	–	–	104	–	–
[5], 10 nM	–	–	106	–	–
[5], 100 nM	–	–	101	–	–
[5], 1000 nM	–	–	99.2	–	–
[5], 10000 nM	–	–	91.5	–	–
[6], 1 nM	–	–	91.9	–	–
[6], 10 nM	–	–	103	–	–
[6], 100 nM	–	–	107	–	–
[6], 1000 nM	–	–	114	–	–
[6], 10000 nM	–	–	28.9	–	–
[7], 1 nM	–	–	108	–	–
[7], 10 nM	–	–	106	–	–
[7], 100 nM	–	–	105	–	–
[7], 1000 nM	–	–	109	–	–
[7], 10000 nM	–	–	14.4	–	–
[14], 0.3 µM	92	–	–	–	–
[14], 3 µM	21	–	–	–	–
[14], 10 µM	13	–	–	–	–
[14], 30 µM	37	–	–	–	–
[20], 0.3 µM	–	–	–	0.28	–
[20], 3 µM	–	–	–	0.76	–
[20], 10 µM	–	–	–	0.07	–
[20], 30 µM	–	–	–	-0.22	–

drug-induced phospholipidosis [%], [8]
Details	0.3 µM	0.833333 µM	3.33333 µM	6.66667 µM	10 µM	30 µM
24 h	19	47.5	80.5	93.8	106	38.3
48 h	20.5	48.8	76.7	97.3	89.8	–
72 h	16	32	73.7	84.2	95.7	–

Details	drug sensitivity score	relative viability EC50 [µM]
[9]	0.8	–
[10]	0	–
[11]	0	–
[12]	3.1	–
[13]	4.1	–
[15]	–	> 10
[16]	–	> 10
[17]	–	> 10
[18]	–	3.92
[19]	–	3.67
